# Measurements: patent US20260372303A1, “5-Fluoro-4-Imino-3-Methyl-1-Tosyl-3, 4-Dihydropyrimidin-2(1H) -One for Fungicide-Resistant Fungus” (priority 2022, published 2026)
# Key:
# [1] = system: Zymoseptoria tritici strain Zt StA; test: In planta preventive efficacy on wheat cv. Alixan against Zymoseptoria tritici strain Zt StA (control strain, sensitive); type: in vivo; settings: for Disease Severity Intensity: % of length of 2nd leaf blade, preventive 24 h; for AUDPC: control 781.6
# In short: (§1)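 BBCH 12 wheat plants sprayed preventively, inoculated 24 h later with calibrated pycnospore suspension; 3 pots of 6 plants per condition, 20/17 °C, 16 h light. Necrosis length on second leaf scored at 15, 21 and 28 dpi; efficacy from trapezoidal AUDPC as % of untreated control.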
# [2] = system: Z. tritici strains; test: In planta susceptibility of all Z. tritici strains pathogenic on wheat cv. ALIXAN (conclusions); type: in vivo, Zymoseptoria tritici
# Procedure: Winter wheat plants cv. Alixan (Limagrain) at the BBCH 12 growth stage were treated preventively with sterile distilled water (control), ADF-16, penthiopyrad, metconazole or tebuconazole at the rates described in Table 2 with a hand sprayer at 2 bars.
# After treatment, wheat plants were left to dry at room temperature for 1 hour and then placed in a climatic chamber: temperature of 24 °C day/18 °C night-photoperiod of 16 h light/8 h dark and a relative humidity of 65%.
# Untreated or treated whole wheat plants were inoculated 24-hours post-treatment with a calibrated pycnospore suspension of Z. tritici strains Zt StA, Zt 61, Zt 99, Zt 20, Zt 19-52, and Zt 38-02. Three replicates (pots) of 6 wheat plants each were used for each condition tested. […]
# Disease assessments were carried out at 15 days post inoculation (dpi), 21 dpi and 28 dpi by measuring the length of the necrosis on the second leaf blade. The intensity of infection was then determined as a percentage of the total length of 2nd leaf blade.
# The fungicide efficacies were determined from the Area Under the Disease Progress Curve (AUDPC) values and expressed as a percentage of the untreated control.
# The AUDPC is a quantitative measure of disease intensity over time. […] The AUDPC is determined with the following formula by adding all of the trapezoids: […]
# [3] = system: Zymoseptoria tritici strain Zt 99; test: In planta preventive efficacy on wheat cv. Alixan against Zymoseptoria tritici strain Zt 99; type: in vivo; settings: for Disease Severity Intensity: % of length of 2nd leaf blade, preventive 24 h; for AUDPC: control 1352.9
# In short: as §1
# [4] = system: Zymoseptoria tritici strain Zt 19-52; test: In planta preventive efficacy on wheat cv. Alixan against Zymoseptoria tritici strain Zt 19-52; type: in vivo; settings: % of length of 2nd leaf blade, preventive 24 h
# [5] = system: Zymoseptoria tritici strain Zt 38-02; test: In planta preventive efficacy on wheat cv. Alixan against Zymoseptoria tritici strain Zt 38-02; type: in vivo; settings: for Disease Severity Intensity: % of length of 2nd leaf blade, preventive 24 h; for AUDPC: control 1261.4
# In short: as §1
# [6] = system: Zymoseptoria tritici strain Zt 20; test: In planta preventive efficacy on wheat cv. Alixan against Zymoseptoria tritici strain Zt 20; type: in vivo; settings: % of length of 2nd leaf blade, preventive 24 h
# In short: as §1
# [7] = system: Zymoseptoria tritici strain Zt 61; test: In planta preventive efficacy on wheat cv. Alixan against Zymoseptoria tritici strain Zt 61; type: in vivo; settings: for Disease Severity Intensity: % of length of 2nd leaf blade, preventive 24 h; for AUDPC: control 1194.9
# In short: as §1
# [8] = 15 dpi, rate N (g a.i./ha): ADF-16 100, penthiopyrad 200, metconazole 90, tebuconazole 250, control also no disease
# [9] = 15 dpi, rate N/2.5 (g a.i./ha): ADF-16 40, penthiopyrad 80, metconazole 36, tebuconazole 100, control also no disease
# [10] = rate N (g a.i./ha): ADF-16 100, penthiopyrad 200, metconazole 90, tebuconazole 250
# [11] = rate N/2.5 (g a.i./ha): ADF-16 40, penthiopyrad 80, metconazole 36, tebuconazole 100
smiles,measurement,setting,value
"Cc1ccc(S(=O)(=O)n2cc(F)c(=N)n(C)c2=O)cc1 [ADF-16, 5-fluoro-4-imino-3-methyl-1-tosyl-3,4-dihydropyrimidin-2 (1H)-one]",Disease Severity Intensity,[1]; [8],No disease
same,Disease Severity Intensity,[1]; [9],No disease
same,Disease Severity Intensity,"[1]; 21 dpi, rate N (g a.i./ha): ADF-16 100, penthiopyrad 200, metconazole 90, tebuconazole 250, control 36.5",0.0 +/− 0.0b %
same,Disease Severity Intensity,"[1]; 21 dpi, rate N/2.5 (g a.i./ha): ADF-16 40, penthiopyrad 80, metconazole 36, tebuconazole 100, control 36.5",0.0 +/− 0.0b %
same,Disease Severity Intensity,"[1]; 28 dpi, rate N (g a.i./ha): ADF-16 100, penthiopyrad 200, metconazole 90, tebuconazole 250, control 77.4",0.0 +/− 0.0b %
same,Disease Severity Intensity,"[1]; 28 dpi, rate N/2.5 (g a.i./ha): ADF-16 40, penthiopyrad 80, metconazole 36, tebuconazole 100, control 77.4",0.0 +/− 0.0b %
same,"Efficacy (from AUDPC, percentage of the untreated control)",[1]; [10],100%
same,AUDPC,[1]; [10],0.0 +/− 0.0b
same,"Efficacy (from AUDPC, percentage of the untreated control)",[1]; [11],100%
same,AUDPC,[1]; [11],0.0 +/− 0.0b
same,control in planta of Z. tritici strains,"[2]; 8 strains pathogenic on wheat cv. ALIXAN, 2 doses tested (40 and 100 g a.i./ha)",perfectly controlled
same,effectiveness,"[2]; full dose of 100 g a.i./ha, across strains",more than 99%
same,Disease Severity Intensity,"[3]; 15 dpi, rate N (g a.i./ha): ADF-16 100, penthiopyrad 200, metconazole 90, tebuconazole 250, control 47.9",0.0 +/− 0.0d %
same,Disease Severity Intensity,"[3]; 15 dpi, rate N/2.5 (g a.i./ha): ADF-16 40, penthiopyrad 80, metconazole 36, tebuconazole 100, control 47.9",0.0 +/− 0.0d %
same,Disease Severity Intensity,"[3]; 21 dpi, rate N (g a.i./ha): ADF-16 100, penthiopyrad 200, metconazole 90, tebuconazole 250, control 81.0",0.1 +/− 0.1f %
same,Disease Severity Intensity,"[3]; 21 dpi, rate N/2.5 (g a.i./ha): ADF-16 40, penthiopyrad 80, metconazole 36, tebuconazole 100, control 81.0",0.0 +/− 0.0f %
same,Disease Severity Intensity,"[3]; 28 dpi, rate N (g a.i./ha): ADF-16 100, penthiopyrad 200, metconazole 90, tebuconazole 250, control 92.2",0.1 +/− 0.1e %
same,Disease Severity Intensity,"[3]; 28 dpi, rate N/2.5 (g a.i./ha): ADF-16 40, penthiopyrad 80, metconazole 36, tebuconazole 100, control 92.2",1.7 +/− 0.8e %
same,"Efficacy (from AUDPC, percentage of the untreated control)",[3]; [10],99.9%
same,AUDPC,[3]; [10],1.2 ± 0.3 g
same,"Efficacy (from AUDPC, percentage of the untreated control)",[3]; [11],99.6%
same,AUDPC,[3]; [11],5.9 ± 0.4 g
same,Disease Severity Intensity,"[4]; 15 dpi, rate N (g a.i./ha): ADF-16 100, penthiopyrad 200, metconazole 90, tebuconazole 250, control 22.0",0.0 +/− 0.0b %
same,Disease Severity Intensity,"[4]; 15 dpi, rate N/2.5 (g a.i./ha): ADF-16 40, penthiopyrad 80, metconazole 36, tebuconazole 100, control 22.0",0.0 +/− 0.0b %
same,Disease Severity Intensity,"[4]; 21 dpi, rate N (g a.i./ha): ADF-16 100, penthiopyrad 200, metconazole 90, tebuconazole 250, control 81.7",0.4 +/− 0.4c %
same,Disease Severity Intensity,"[4]; 21 dpi, rate N/2.5 (g a.i./ha): ADF-16 40, penthiopyrad 80, metconazole 36, tebuconazole 100, control 81.7",0.3 +/− 0.2c %
same,Disease Severity Intensity,"[4]; 28 dpi, rate N (g a.i./ha): ADF-16 100, penthiopyrad 200, metconazole 90, tebuconazole 250, control 91.0",2.0 +/− 1.4ef %
same,Disease Severity Intensity,"[4]; 28 dpi, rate N/2.5 (g a.i./ha): ADF-16 40, penthiopyrad 80, metconazole 36, tebuconazole 100, control 91.0",4.4 +/− 1.7de %
same,Disease Severity Intensity,"[5]; 15 dpi, rate N (g a.i./ha): ADF-16 100, penthiopyrad 200, metconazole 90, tebuconazole 250, control 36.0",0.0 +/− 0.0b %
same,Disease Severity Intensity,"[5]; 15 dpi, rate N/2.5 (g a.i./ha): ADF-16 40, penthiopyrad 80, metconazole 36, tebuconazole 100, control 36.0",0.0 +/− 0.0b %
same,Disease Severity Intensity,"[5]; 21 dpi, rate N (g a.i./ha): ADF-16 100, penthiopyrad 200, metconazole 90, tebuconazole 250, control 84.3",0.0 +/− 0.0f^ %
same,Disease Severity Intensity,"[5]; 21 dpi, rate N/2.5 (g a.i./ha): ADF-16 40, penthiopyrad 80, metconazole 36, tebuconazole 100, control 84.3",0.0 +/− 0.0f^ %
same,Disease Severity Intensity,"[5]; 28 dpi, rate N (g a.i./ha): ADF-16 100, penthiopyrad 200, metconazole 90, tebuconazole 250, control 95.7",0.4 +/− 0.4e %
same,Disease Severity Intensity,"[5]; 28 dpi, rate N/2.5 (g a.i./ha): ADF-16 40, penthiopyrad 80, metconazole 36, tebuconazole 100, control 95.7",0.0 +/− 0.0e %
same,"Efficacy (from AUDPC, percentage of the untreated control)",[5]; [10],99.9%
same,AUDPC,[5]; [10],1.3 +/− 0.9e
same,"Efficacy (from AUDPC, percentage of the untreated control)",[5]; [11],100%
same,AUDPC,[5]; [11],0.0 +/− 0.0e
same,Disease Severity Intensity,[6]; [8],No disease
same,Disease Severity Intensity,[6]; [9],No disease
same,Disease Severity Intensity,"[6]; 21 dpi, rate N (g a.i./ha): ADF-16 100, penthiopyrad 200, metconazole 90, tebuconazole 250, control 77.2",0.0 +/− 0.0e %
same,Disease Severity Intensity,"[6]; 21 dpi, rate N/2.5 (g a.i./ha): ADF-16 40, penthiopyrad 80, metconazole 36, tebuconazole 100, control 77.2",0.0 +/− 0.0e %
same,Disease Severity Intensity,"[6]; 28 dpi, rate N (g a.i./ha): ADF-16 100, penthiopyrad 200, metconazole 90, tebuconazole 250, control 95.5",0.0 +/− 0.0g %
same,Disease Severity Intensity,"[6]; 28 dpi, rate N/2.5 (g a.i./ha): ADF-16 40, penthiopyrad 80, metconazole 36, tebuconazole 100, control 95.5",7.3 +/− 1.9f %
same,Disease Severity Intensity,[7]; [8],No disease
same,Disease Severity Intensity,[7]; [9],No disease
same,Disease Severity Intensity,"[7]; 21 dpi, rate N (g a.i./ha): ADF-16 100, penthiopyrad 200, metconazole 90, tebuconazole 250, control 63.3",0.0 +/− 0.0d %
same,Disease Severity Intensity,"[7]; 21 dpi, rate N/2.5 (g a.i./ha): ADF-16 40, penthiopyrad 80, metconazole 36, tebuconazole 100, control 63.3",3.2 +/− 1.1d %
same,Disease Severity Intensity,"[7]; 28 dpi, rate N (g a.i./ha): ADF-16 100, penthiopyrad 200, metconazole 90, tebuconazole 250, control 88.1",1.5 +/− 0.3g %
same,Disease Severity Intensity,"[7]; 28 dpi, rate N/2.5 (g a.i./ha): ADF-16 40, penthiopyrad 80, metconazole 36, tebuconazole 100, control 88.1",14.8 +/− 4.0e %
same,"Efficacy (from AUDPC, percentage of the untreated control)",[7]; [10],99.6%
same,AUDPC,[7]; [10],5.4 ± 1.2 days
same,"Efficacy (from AUDPC, percentage of the untreated control)",[7]; [11],91.9%
same,AUDPC,[7]; [11],97.2 ± 5.0 days
